What was measured:
[1] = test system: chemotherapy-induced myelosuppression in ES-SCLC patients; test: Study G1T28-03 Part 1 DLTs and myelosuppression endpoints (with topotecan); type: in vivo, human
Excerpt: G1T28-03 (NCT02514447) was a multicentre Phase Ib/IIa study in patients with previously treated ES-SCLC [14]. Patients were aged ≥ 18 years and had histologically or cytologically confirmed ES-SCLC that had progressed during or after prior first- or second-line chemotherapy, measurable disease per RECIST version 1.1, an ECOG performance status of 0–2, and adequate organ function. Part 1 was a Phase Ib, open-label, dose-finding portion. Part 2 was a Phase IIa, randomized, double-blind, placebo-controlled portion. […] In Part 1 of the study, blood samples for PK analysis were collected at prespecified time points on Cycle 1 Day 1 and Cycle 1 Day 4 for all patients.

[2] = human, in vivo; cited from earlier work
[3] = G1T28-03 Part 1, 200 mg/m2 + topotecan […]2 (n = 2)
[4] = G1T28-03 Part 1, 240 mg/m2 + topotecan 0.75 mg/m2 (n = 8)
[5] = G1T28-03 Part 1, 240 mg/m2 + topotecan 1.00 mg/m2 (n = 8)
[6] = G1T28-03 Part 1, 280 mg/m2 + topotecan 0.75 mg/m2 (n = 7)
[7] = G1T28-03 Part 1, total (n = 32)

**Q.** Which “Occurrence of Grade 3 or 4 decreased hemoglobin laboratory values” [1, 3] does the source give for `CN1CCN(c2ccc(Nc3ncc4cc5n(c4n3)C3(CCCCC3)CNC5=O)nc2)CC1` [trilaciclib] here?
**A.** 2 (100) n (%)

**Q.** What about the “Occurrence of Grade 3 or 4 decreased platelet count values” [1, 3] of the same compound?
**A.** 2 (100) n (%)

**Q.** What about the “Occurrence of Grade 3 or 4 hematologic laboratory abnormalities” value [1, 3] of the same compound?
**A.** 2 (100.0) n (%)

**Q.** And the “Occurrence of IV antibiotic use” value [1, 3]?
**A.** 2 (100) n (%)

**Q.** And the “Occurrence of RBC transfusions on/after Week 5” value [1, 3]?
**A.** 2 (100) n (%)

**Q.** What about the “Occurrence of SN” value [1, 3] of the same compound?
**A.** 2 (100) n (%)

**Q.** What about the “Occurrence of infection SAEs” value [1, 3] of the same compound?
**A.** 2 (100) n (%)

**Q.** What about the “Occurrence of platelet transfusions” value [1, 3] of the same compound?
**A.** 0 n (%)

**Q.** What about the “Occurrence of pulmonary infection SAEs” value [1, 3] of the same compound?
**A.** 1 (50.0) n (%)

**Q.** What about the “DSN in Cycle 1, mean (SD)” value [1, 4] of the same compound?
**A.** 0 (0.0) days

**Q.** What about the “MAHE, event rate” value [1, 4] of the same compound?
**A.** 0.037 per week

**Q.** What about the “Mean ANC Nadir in Cycle 1” value [1, 4] of the same compound?
**A.** 1.31 (0.650) ×109/L

**Q.** And the “Occurrence of ESA administrations” value [1, 4]?
**A.** 1 (12.5) n (%)

**Q.** What about the “Occurrence of FN” value [1, 4] of the same compound?
**A.** 0 n (%)

**Q.** And the “Occurrence of G-CSF administration” value [1, 4]?
**A.** 4 (50.0) n (%)

**Q.** And the “Occurrence of Grade 3 or 4 decreased hemoglobin laboratory values” [1, 4]?
**A.** 3 (37.5) n (%)

**Q.** And the “Occurrence of Grade 3 or 4 decreased platelet count values” [1, 4]?
**A.** 0 n (%)

**Q.** What about the “Occurrence of Grade 3 or 4 hematologic laboratory abnormalities” value [1, 4] of the same compound?
**A.** 7 (87.5) n (%)

**Q.** And the “Occurrence of IV antibiotic use” value [1, 4]?
**A.** 1 (12.5) n (%)

**Q.** What about the “Occurrence of RBC transfusions on/after Week 5” value [1, 4] of the same compound?
**A.** 1 (12.5) n (%)

**Q.** What about the “Occurrence of SN” value [1, 4] of the same compound?
**A.** 0 n (%)

**Q.** And the “Occurrence of infection SAEs” value [1, 4]?
**A.** 0 n (%)

**Q.** And the “Occurrence of platelet transfusions” value [1, 4]?
**A.** 0 n (%)

**Q.** And the “Occurrence of pulmonary infection SAEs” value [1, 4]?
**A.** 0 n (%)

**Q.** And the “DSN in Cycle 1, mean (SD)” value [1, 5]?
**A.** 3 (5.5) days

**Q.** And the “MAHE, event rate” value [1, 5]?
**A.** 0.073 per week

**Q.** And the “Mean ANC Nadir in Cycle 1” value [1, 5]?
**A.** 0.63 (0.341) ×109/L

**Q.** And the “Occurrence of ESA administrations” value [1, 5]?
**A.** 1 (12.5) n (%)

**Q.** What about the “Occurrence of FN” value [1, 5] of the same compound?
**A.** 0 n (%)

**Q.** And the “Occurrence of G-CSF administration” value [1, 5]?
**A.** 3 (37.5) n (%)

**Q.** What about the “Occurrence of Grade 3 or 4 decreased hemoglobin laboratory values” [1, 5] of the same compound?
**A.** 3 (37.5) n (%)

**Q.** And the “Occurrence of Grade 3 or 4 decreased platelet count values” [1, 5]?
**A.** 1 (12.5) n (%)

**Q.** And the “Occurrence of Grade 3 or 4 hematologic laboratory abnormalities” value [1, 5]?
**A.** 7 (87.5) n (%)

**Q.** What about the “Occurrence of IV antibiotic use” value [1, 5] of the same compound?
**A.** 1 (12.5) n (%)

**Q.** What about the “Occurrence of RBC transfusions on/after Week 5” value [1, 5] of the same compound?
**A.** 2 (25.0) n (%)

**Q.** What about the “Occurrence of SN” value [1, 5] of the same compound?
**A.** 3 (37.5) n (%)

**Q.** And the “Occurrence of infection SAEs” value [1, 5]?
**A.** 1 (12.5) n (%)

**Q.** And the “Occurrence of platelet transfusions” value [1, 5]?
**A.** 0 n (%)

**Q.** What about the “Occurrence of pulmonary infection SAEs” value [1, 5] of the same compound?
**A.** 1 (12.5) n (%)

**Q.** And the “patients reporting DLTs” value ([1]; G1T28-03 Part 1, 280 mg/m2 + topotecan 0.75 mg/m2)?
**A.** 2 of 7

**Q.** What about the “DSN in Cycle 1, mean (SD)” value [1, 6] of the same compound?
**A.** 2 (3.6) days

**Q.** What about the “MAHE, event rate” value [1, 6] of the same compound?
**A.** 0.085 per week

**Q.** And the “Mean ANC Nadir in Cycle 1” value [1, 6]?
**A.** 0.86 (0.594) ×109/L

**Q.** And the “Occurrence of ESA administrations” value [1, 6]?
**A.** 0 n (%)

**Q.** What about the “Occurrence of FN” value [1, 6] of the same compound?
**A.** 1 (14.3) n (%)

**Q.** What about the “Occurrence of G-CSF administration” value [1, 6] of the same compound?
**A.** 2 (28.6) n (%)

**Q.** And the “Occurrence of Grade 3 or 4 decreased hemoglobin laboratory values” [1, 6]?
**A.** 1 (14.3) n (%)

**Q.** And the “Occurrence of Grade 3 or 4 decreased platelet count values” [1, 6]?
**A.** 2 (28.6) n (%)

**Q.** And the “Occurrence of Grade 3 or 4 hematologic laboratory abnormalities” value [1, 6]?
**A.** 7 (100.0) n (%)

**Q.** And the “Occurrence of IV antibiotic use” value [1, 6]?
**A.** 2 (28.6) n (%)

**Q.** What about the “Occurrence of RBC transfusions on/after Week 5” value [1, 6] of the same compound?
**A.** 1 (14.3) n (%)

**Q.** What about the “Occurrence of SN” value [1, 6] of the same compound?
**A.** 2 (28.6) n (%)

**Q.** And the “Occurrence of infection SAEs” value [1, 6]?
**A.** 0 n (%)

**Q.** And the “Occurrence of platelet transfusions” value [1, 6]?
**A.** 1 (14.3) n (%)

**Q.** And the “Occurrence of pulmonary infection SAEs” value [1, 6]?
**A.** 0 n (%)

**Q.** And the “DSN in Cycle 1, mean (SD)” value [1, 7]?
**A.** 3 (5.1) days

**Q.** And the “MAHE, event rate” value [1, 7]?
**A.** 0.107 per week

**Q.** And the “Occurrence of ESA administrations” value [1, 7]?
**A.** 5 (15.6) n (%)

**Q.** And the “Occurrence of FN” value [1, 7]?
**A.** 1 (3.1) n (%)

**Q.** And the “Occurrence of G-CSF administration” value [1, 7]?
**A.** 14 (43.8) n (%)

**Q.** And the “Occurrence of Grade 3 or 4 decreased hemoglobin laboratory values” [1, 7]?
**A.** 12 (37.5) n (%)

**Q.** What about the “Occurrence of Grade 3 or 4 decreased platelet count values” [1, 7] of the same compound?
**A.** 8 (25.0) n (%)

**Q.** And the “Occurrence of Grade 3 or 4 hematologic laboratory abnormalities” value [1, 7]?
**A.** 30 (93.8) n (%)

**Q.** And the “Occurrence of IV antibiotic use” value [1, 7]?
**A.** 8 (25.0) n (%)

**Q.** What about the “Occurrence of RBC transfusions on/after Week 5” value [1, 7] of the same compound?
**A.** 9 (28.1) n (%)

**Q.** What about the “Occurrence of SN” value [1, 7] of the same compound?
**A.** 10 (31.3) n (%)

**Q.** And the “Occurrence of infection SAEs” value [1, 7]?
**A.** 5 (15.6) n (%)

**Q.** And the “Occurrence of platelet transfusions” value [1, 7]?
**A.** 2 (6.3) n (%)

**Q.** And the “Occurrence of pulmonary infection SAEs” value [1, 7]?
**A.** 4 (12.5) n (%)

**Q.** And the “most commonly reported AEs” value [2]?
**A.** headache and nausea

**Q.** And the “severe AEs” value [2]?
**A.** No severe AEs were reported

**Q.** What about the “time to spontaneous resolution of all moderate AEs” value [2] of the same compound?
**A.** ≤ 24 h

Source: PMC8026479 (Cancer Chemotherapy and Pharmacology, 2021)
